One molecule from patent US20260041653A1, “AN HDAC INHIBITOR FOR TREATING CANCER WITH A MODIFIED STK11 ACTIVITY OR EXPRESSION” (Tango Therapeutics, Inc., priority 2022, published 2026) can be followed below.

The term solubility denotes the concentration that dissolves in the medium under given conditions. Usually fraction unbound stands for the share of the substance not bound to proteins or other matrix. A high value points to weak binding.

A short description of data set [1]: Tolerated and efficacious dose ranges in vivo. The protocol:
Briefly, a colony forming unit assay was performed in vitro to evaluate the impact of HDAC inhibitors on the viability of erythroid and myeloid cells. Cells were treated with a dose response of each compound for 14 days. Cell colonies were quantified at the end of the experiment and compared to a solvent control. The efficacious dose range of Compound I was also plotted (the range was between 3 mg/kg and 75 mg/kg) (FIG. 12A). The IC50s for each compound were calculated from the erythroid and myeloid colony formation unit assay. These IC50s were normalized to the compound's potency against HDAC1 in the cellular NanoBRET assay to allow for head-to-head compound comparison (Table 4-1).
Compound I concentrations to HDAC1 or HDAC3 inhibition in vivo were plotted in FIG. 12D. Shaded boxes indicate tolerated and efficacious dose ranges of Compound I. Non-tolerated exposures were over 150 mg/kg.

The nature of data set [2]: Solubility in hERG assay medium. In kind it is physicochemical. As to conditions: aqueous buffer, kinetic from dmso stock, 0.3% DMSO, pH 6.9. The protocol: The effects of Compound I on a cloned human ether-à-go-go-related gene (hERG) potassium channels stably expressed in human embryonic kidney (HEK) 293 cells were measured using manual patch-clamp technique. Briefly, Compound I was soluble at 100 uM in 0.3% DMSO, pH 6.9. A does range-finding (DRF) assay was performed with Compound I at 3. 30, and 100 uM concentrations.

The target of another data set is CYP3A4 (Homo sapiens, UniProt P08684). In words: CYP3A4 (Table 5). As to conditions: test not described. Type of data set: in vitro ADME.
Chain of CYP3A4 (P08684 whole entry): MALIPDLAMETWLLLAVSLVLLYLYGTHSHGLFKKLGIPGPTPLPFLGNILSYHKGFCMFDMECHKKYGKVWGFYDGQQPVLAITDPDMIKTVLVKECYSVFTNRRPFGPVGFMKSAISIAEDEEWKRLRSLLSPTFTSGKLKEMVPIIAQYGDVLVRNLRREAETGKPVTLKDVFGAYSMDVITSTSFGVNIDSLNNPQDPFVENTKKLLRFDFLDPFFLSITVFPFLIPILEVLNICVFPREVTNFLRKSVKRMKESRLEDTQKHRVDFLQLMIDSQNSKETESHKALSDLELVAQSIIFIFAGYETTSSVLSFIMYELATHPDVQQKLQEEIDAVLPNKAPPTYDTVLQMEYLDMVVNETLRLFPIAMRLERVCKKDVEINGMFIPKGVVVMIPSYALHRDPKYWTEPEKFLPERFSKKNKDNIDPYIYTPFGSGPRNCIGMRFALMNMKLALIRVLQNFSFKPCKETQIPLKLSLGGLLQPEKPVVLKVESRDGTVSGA
Data set [3] can be described thus: Free fraction in mouse plasma. Type of data set: in vitro ADME. Conditions: C57BL/6 mouse plasma.

In the case of `C[S@@](=N)(=O)c1ccc(C(=O)Nc2cc(-c3ccc(F)cc3)ccc2N)cc1` [Compound I, (R)—N-(4-amino-4′-fluoro-[1,1′-biphenyl]-3-yl)-4-(S-methylsulfonimidoyl)benzamide], in data set [1], the Non-tolerated exposures entry is “over 150 mg/kg”. This molecule registered a solubility in data set [2] of at least 100 µM. In addition, the CYP3A4 entry on CYP3A4 is reported as “No signal”. Besides, the fraction unbound in data set [3] came to 0.101.
